Measurements as given in patent publication US20210038579A1, “Treatment Of Patients With Classic Fabry Disease” (Amicus Therapeutics, Inc., priority 2018, published 2021).
Residue numbers refer to the chain shown, from its start. “And” between values parts separate entries of the source, which are not always exact repeats. Equal values may be shown once.

Key:
Experiment in all cases: HEK assay: α-Gal A activity in HEK-293 cell lysate with migalastat
Type in all cases: cell-based
[1] = target: T1, α-Gal A mutant form p.Arg301Gln (c.902 G > A) (Homo sapiens, UniProt P06280, R301Q)
T1 construct: expressed in transfected cells; host or cells: HEK-293
T1 sequence (P06280 32-429 R301Q): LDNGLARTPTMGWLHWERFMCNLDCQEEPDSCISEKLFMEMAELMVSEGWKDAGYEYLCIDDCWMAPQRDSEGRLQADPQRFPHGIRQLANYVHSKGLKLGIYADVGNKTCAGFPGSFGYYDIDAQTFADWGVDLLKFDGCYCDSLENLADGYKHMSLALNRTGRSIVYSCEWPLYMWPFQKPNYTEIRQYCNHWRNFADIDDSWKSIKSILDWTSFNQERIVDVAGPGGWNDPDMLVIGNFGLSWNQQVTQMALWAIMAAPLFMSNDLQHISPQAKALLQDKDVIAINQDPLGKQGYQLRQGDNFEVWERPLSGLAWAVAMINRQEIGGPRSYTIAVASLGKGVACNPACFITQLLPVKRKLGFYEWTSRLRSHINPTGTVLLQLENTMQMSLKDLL
Procedure, shortened: (§1)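 HEK-293 cells are transfected transiently with cDNA for each missense or small in-frame indel α-Gal A mutant. They are cultured ±migalastat across 17 nM to 1 mM over 4 to 5 days, after which lysate enzyme is quantified fluorogenically (4-MU-α-Gal) or by immunoblot.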

[2] = target: T2, α-Gal A mutant form p.Arg112His (c.335 G > A) (Homo sapiens, UniProt P06280, R112H)
T2 construct: expressed in transfected cells; host or cells: HEK-293
T2 sequence (P06280 32-429 R112H): T1 sequence (P06280 32-429 R301Q) with R81H, Q270R
Procedure, shortened: as §1

[3] = target: T3, α-Gal A mutant form p.Gly271Ser; Asp313Tyr (c.811 G > A; c.937 G > T) (Homo sapiens, UniProt P06280, D313Y/G271S)
T3 construct: expressed in transfected cells; host or cells: HEK-293
T3 sequence (P06280 32-429 G271S/D313Y): T1 sequence (P06280 32-429 R301Q) with G240S, Q270R, D282Y
Procedure, shortened: as §1

[4] = target: T4, α-Gal A mutant form p.Gly183Asp (c.548 G > A) (Homo sapiens, UniProt P06280, G183D)
T4 construct: expressed in transfected cells; host or cells: HEK-293
T4 sequence (P06280 32-429 G183D): T1 sequence (P06280 32-429 R301Q) with G152D, Q270R
Procedure, shortened: as §1

[5] = target: T5, α-Gal A mutant form p.Gly144Val (c.431 G > T) (Homo sapiens, UniProt P06280, G144V)
T5 construct: expressed in transfected cells; host or cells: HEK-293
T5 sequence (P06280 32-429 G144V): T1 sequence (P06280 32-429 R301Q) with G113V, Q270R
Procedure, shortened: as §1

[6] = +10 μM migalastat, HEK-293 cell lysate, mean ± SEM, n = 20
[7] = HEK293, 10 μM migalastat minus baseline, read-out: Absolute increase at 10 μM (% WT)

OC[C@H]1NC[C@H](O)[C@@H](O)[C@H]1O [migalastat]
α-Gal A activity at 10 μM (fold over baseline) ([1]; 10 μM migalastat): 8.12 fold over baseline | +Migalastat α-Gal A activity [1, 6]: 15547 ± 353 nmol/mg/h | +Migalastat α-Gal A activity % WT [1, 6]: 44.5 ± 1.0 % WT | activation at 10 µM [1, 7]: 39% | α-Gal A activity at 10 μM (fold over baseline) ([2]; 10 μM migalastat): 6.61 fold over baseline | +Migalastat α-Gal A activity [2, 6]: 5583 ± 215 nmol/mg/h | +Migalastat α-Gal A activity % WT [2, 6]: 17.4 ± 0.8 % WT | activation at 10 µM [2, 7]: 14.8% | Absolute increase at 10 μM (% WT) ([3]; 10 μM migalastat minus baseline): 3.0 % WT | +Migalastat α-Gal A activity [3, 6]: 877 ± 18 nmol/mg/h | +Migalastat α-Gal A activity % WT [3, 6]: 3.0 ± 0.2 % WT | α-Gal A activity at 10 μM (fold over baseline) ([4]; 10 μM migalastat): 29.31 fold over baseline | +Migalastat α-Gal A activity [4, 6]: 6074 ± 212 nmol/mg/h | +Migalastat α-Gal A activity % WT [4, 6]: 19.1 ± 1.0 % WT and 19.1 ± 10 % WT | activation at 10 µM [4, 7]: 18.4% | α-Gal A activity at 10 μM (fold over baseline) ([5]; 10 μM migalastat): 11.58 fold over baseline | +Migalastat α-Gal A activity [5, 6]: 2924 ± 335 nmol/mg/h | +Migalastat α-Gal A activity % WT [5, 6]: 9.2 ± 1.2 % WT | activation at 10 µM [5, 7]: 8.4%
